Among the test systems are KM12 colon; SW-620 colon; NCI/ADR-RES ovarian; HCC-2998 colon; ACHN renal; NCI-H226 lung; SK-OV-3 ovarian; TK-10 renal; MDA-MB-435; A498 renal.
Holding throughout (experiment): NCI-60 cell line screen, 48 h

7 compounds from PubChem BioAssay (NCI) can be followed below.

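96-well plates; 48 h exposure; 5 concentrations. Endpoints by linear interpolation between flanking doses. Not reached: highest tested concentration assigned. Abbreviation: GI50, concentration required for 50% inhibition of growth. TGI marks complete inhibition of growth.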

`COC(=O)N/N=C(/c1nc2ccc([N+](=O)[O-])cc2[nH]c1=O)C(O)c1ccc(OC)c(OC)c1` (stereo not given): the TGI in the test with KM12 colon, in the test with SW-620 colon, in the test on NCI/ADR-RES ovarian, in the test on HCC-2998 colon, in the test with ACHN renal and in the test on NCI-H226 lung was greater than 100 µM each time. In addition, the TGI in the test on SK-OV-3 ovarian, in the test on TK-10 renal, with MDA-MB-435 and in the test on A498 renal was greater than 100 µM in each case.
Take `Cc1cc2c(cc1Cl)N1C(=O)NS(=O)(=O)N=C1NS2(=O)=O`: the GI50 in the test on KM12 colon, in the test on SW-620 colon, in the test on NCI/ADR-RES ovarian, in the test with HCC-2998 colon, in the test with ACHN renal and in the test with NCI-H226 lung was greater than 100 µM each time. Also, the GI50 in the test on SK-OV-3 ovarian, in the test with TK-10 renal, with MDA-MB-435 and with A498 renal was greater than 100 µM throughout. Moreover, the TGI with KM12 colon, in the test on SW-620 colon, with NCI/ADR-RES ovarian, in the test on HCC-2998 colon, with ACHN renal and in the test on NCI-H226 lung was greater than 100 µM each time. In addition, the TGI in the test on SK-OV-3 ovarian, with TK-10 renal, in the test with MDA-MB-435 and with A498 renal was greater than 100 µM in each case.
For `COc1cc(NC(C)CCCN2C(=O)c3ccccc3C2=O)c2ncccc2c1OC` (stereo not given), the GI50 was 29.7 µM with KM12 colon; 35.3 µM in the test on SW-620 colon; 24 µM in the test with NCI/ADR-RES ovarian; 33.1 µM in the test on HCC-2998 colon; 29.9 µM with ACHN renal; 33.3 µM in the test with NCI-H226 lung. The GI50 in the test on SK-OV-3 ovarian is greater than 100 µM; in the test on TK-10 renal, 40.5 µM; in the test on MDA-MB-435 it was 34.2 µM; in the test with A498 renal it was 34.4 µM. Also, the TGI with KM12 colon, with SW-620 colon, in the test on NCI/ADR-RES ovarian, in the test with HCC-2998 colon, with ACHN renal and in the test with NCI-H226 lung was greater than 100 µM each time. The TGI with SK-OV-3 ovarian, in the test with TK-10 renal, in the test with MDA-MB-435 and with A498 renal was greater than 100 µM each time.
With `Fc1ccc(-c2c(-c3ccncc3)[nH]c3nccnc23)cc1`, the GI50 was 8.92 µM in the test on KM12 colon; 13.6 µM with SW-620 colon; 16.1 µM in the test with NCI/ADR-RES ovarian; 12 µM in the test on HCC-2998 colon; 3.05 µM in the test on ACHN renal; 6.76 µM in the test with NCI-H226 lung. For the same compound, the GI50 was 8.25 µM with SK-OV-3 ovarian, 5.94 µM in the test with TK-10 renal, 11.6 µM in the test on MDA-MB-435 and 4.76 µM with A498 renal. Besides, the TGI in the test with KM12 colon, in the test on SW-620 colon, in the test on NCI/ADR-RES ovarian, in the test with HCC-2998 colon, in the test on ACHN renal and with NCI-H226 lung was greater than 25 µM each time. For the same compound, the TGI in the test on SK-OV-3 ovarian was greater than 25 µM; with TK-10 renal it was greater than 21.6 µM; in the test with MDA-MB-435 it was greater than 25 µM; in the test with A498 renal, greater than 23.2 µM.
Take `N=C1C(c2nc3ccccc3s2)=C(O)CN1c1cc(Cl)cc(Cl)c1`: the GI50 with KM12 colon, in the test with SW-620 colon, with NCI/ADR-RES ovarian, in the test on HCC-2998 colon, with ACHN renal and in the test on NCI-H226 lung was greater than 100 µM throughout. For the same compound, the GI50 with SK-OV-3 ovarian, in the test on TK-10 renal, in the test on MDA-MB-435 and in the test on A498 renal was greater than 100 µM each time. For the same compound, the TGI in the test with KM12 colon, in the test with SW-620 colon, with NCI/ADR-RES ovarian, in the test on HCC-2998 colon, in the test with ACHN renal and in the test on NCI-H226 lung was greater than 100 µM in each case. Besides, the TGI with SK-OV-3 ovarian, with TK-10 renal, with MDA-MB-435 and in the test with A498 renal was greater than 100 µM each time.
For `COc1cc(Cn2c(SCC(=O)Nc3ccc(Cl)cc3)nc3ccccc3c2=O)cc(OC)c1OC`, the GI50 in the test on KM12 colon was 32.3 µM; with SW-620 colon, 31.8 µM; in the test with NCI/ADR-RES ovarian it was 8.38 µM; in the test with HCC-2998 colon, 26.6 µM; in the test on ACHN renal, 3.15 µM; in the test with NCI-H226 lung, 4 µM. Also, the GI50 is 4.2 µM in the test on SK-OV-3 ovarian, 2.63 µM with TK-10 renal, 22.8 µM in the test on MDA-MB-435 and 2.42 µM with A498 renal. For the same compound, the TGI in the test on KM12 colon was greater than 100 µM; in the test on SW-620 colon, greater than 100 µM; in the test with NCI/ADR-RES ovarian, 27.6 µM; in the test on HCC-2998 colon, greater than 100 µM; in the test on ACHN renal, 11.8 µM; with NCI-H226 lung it was 26.2 µM. In addition, the TGI in the test on SK-OV-3 ovarian is 16.7 µM; in the test on TK-10 renal, 7.67 µM; with MDA-MB-435, greater than 100 µM; in the test on A498 renal, 12.2 µM.
For the compound `COc1ccc(/C=C2/CN(CCC#N)C/C(=C\c3ccc(OC)cc3)C2=O)cc1`, the GI50 in the test on KM12 colon was 1.72 µM; with SW-620 colon it was 2.15 µM; in the test on NCI/ADR-RES ovarian, 3.73 µM; with HCC-2998 colon, 1.9 µM; with ACHN renal, 2.06 µM; in the test on NCI-H226 lung, 21.3 µM. Also, the GI50 with SK-OV-3 ovarian was 5.24 µM; in the test with TK-10 renal, 3.21 µM; with MDA-MB-435, 2.99 µM; in the test on A498 renal, 5.03 µM. The TGI was 3.83 µM in the test on KM12 colon; 6.72 µM in the test on SW-620 colon; greater than 100 µM in the test with NCI/ADR-RES ovarian; 3.47 µM in the test on HCC-2998 colon; 4.48 µM with ACHN renal; greater than 100 µM in the test on NCI-H226 lung. Besides, the TGI with SK-OV-3 ovarian is 51.8 µM; in the test on TK-10 renal it was 7.91 µM; with MDA-MB-435, greater than 100 µM; in the test on A498 renal, 21.5 µM.
